Laboratory results from PubChem BioAssay (NCI).
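Cultured in 96-well plates, cells were exposed to test compound for 48 hours across five concentrations. At the TGI there is no net growth.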

Key:
Assay in all cases: DTP human tumour cell line panel, 48 h
HS 578T breast = tested on: HS 578T breast
UACC-62 melanoma = tested on: UACC-62 melanoma
SF-268 CNS = tested on: SF-268 CNS
DU-145 prostate = tested on: DU-145 prostate
SF-295 CNS = tested on: SF-295 CNS
NCI-H522 lung = tested on: NCI-H522 lung
EKVX NSCLC = tested on: EKVX NSCLC
HCC-2998 colon = tested on: HCC-2998 colon
UACC-257 melanoma = tested on: UACC-257 melanoma
TK-10 renal = tested on: TK-10 renal
HOP-92 NSCLC = tested on: HOP-92 NSCLC
MDA-N = tested on: MDA-N
NCI-H226 lung = tested on: NCI-H226 lung
MOLT-4 leukemia = tested on: MOLT-4 leukemia
T-47D breast = tested on: T-47D breast
SK-MEL-28 melanoma = tested on: SK-MEL-28 melanoma
HCT-116 colon = tested on: HCT-116 colon
MCF7 breast = tested on: MCF7 breast
786-0 renal = tested on: 786-0 renal
A498 renal = tested on: A498 renal
OVCAR-5 ovarian = tested on: OVCAR-5 ovarian
SK-MEL-2 melanoma = tested on: SK-MEL-2 melanoma
SN12C renal = tested on: SN12C renal
LOX IMVI melanoma = tested on: LOX IMVI melanoma
OVCAR-3 ovarian = tested on: OVCAR-3 ovarian
OVCAR-8 ovarian = tested on: OVCAR-8 ovarian
U251 CNS = tested on: U251 CNS
KM12 colon = tested on: KM12 colon
SF-539 CNS = tested on: SF-539 CNS
SK-MEL-5 melanoma = tested on: SK-MEL-5 melanoma
NCI-H460 lung = tested on: NCI-H460 lung
MDA-MB-231 breast = tested on: MDA-MB-231 breast
BT-549 breast = tested on: BT-549 breast
HCT-15 colon = tested on: HCT-15 colon
SR leukemia = tested on: SR leukemia
K-562 leukemia = tested on: K-562 leukemia
SW-620 colon = tested on: SW-620 colon
NCI/ADR-RES ovarian = tested on: NCI/ADR-RES ovarian
COLO 205 colon = tested on: COLO 205 colon
MDA-MB-435 = tested on: MDA-MB-435
RPMI-8226 leukemia = tested on: RPMI-8226 leukemia
OVCAR-4 ovarian = tested on: OVCAR-4 ovarian
M14 melanoma = tested on: M14 melanoma
SNB-19 CNS = tested on: SNB-19 CNS
UO-31 renal = tested on: UO-31 renal
CAKI-1 renal = tested on: CAKI-1 renal
RXF 393 renal = tested on: RXF 393 renal
ACHN renal = tested on: ACHN renal
A549 NSCLC = tested on: A549 NSCLC
SK-OV-3 ovarian = tested on: SK-OV-3 ovarian
MALME-3M melanoma = tested on: MALME-3M melanoma
NCI-H23 lung = tested on: NCI-H23 lung
HOP-62 NSCLC = tested on: HOP-62 NSCLC
HL-60(TB) leukemia = tested on: HL-60(TB) leukemia
HT29 colon = tested on: HT29 colon
PC-3 prostate = tested on: PC-3 prostate
SNB-75 CNS = tested on: SNB-75 CNS
CCRF-CEM leukemia = tested on: CCRF-CEM leukemia
IGROV1 ovarian = tested on: IGROV1 ovarian

In the case of `NS(=O)(=O)c1nnc(NC(=O)c2ccccc2)s1`, the TGI (HS 578T breast) is reported as greater than 100 µM, the TGI (UACC-62 melanoma) is reported as greater than 100 µM and the TGI (SF-268 CNS) is reported as greater than 100 µM. It also gave a TGI (DU-145 prostate) greater than 100 µM, a TGI (SF-295 CNS) greater than 100 µM and a TGI (NCI-H522 lung) greater than 100 µM. The TGI (EKVX NSCLC) was greater than 100 µM, the TGI (HCC-2998 colon) was greater than 100 µM and the TGI (UACC-257 melanoma) was greater than 100 µM. It also gave a TGI (TK-10 renal) greater than 100 µM, a TGI (HOP-92 NSCLC) greater than 100 µM and a TGI (MDA-N) greater than 100 µM. The TGI (NCI-H226 lung) was greater than 100 µM, the TGI (MOLT-4 leukemia) was greater than 100 µM and the TGI (T-47D breast) was greater than 100 µM. For the same compound, the TGI (SK-MEL-28 melanoma) was greater than 100 µM, the TGI (HCT-116 colon) was greater than 100 µM and the TGI (MCF7 breast) was greater than 100 µM. It also gave a TGI (786-0 renal) greater than 100 µM, a TGI (A498 renal) greater than 100 µM and a TGI (OVCAR-5 ovarian) greater than 100 µM. The TGI (SK-MEL-2 melanoma) was greater than 100 µM, the TGI (SN12C renal) was greater than 100 µM and the TGI (LOX IMVI melanoma) was greater than 100 µM. For the same compound, the TGI (OVCAR-3 ovarian) was greater than 100 µM, the TGI (OVCAR-8 ovarian) was greater than 100 µM and the TGI (U251 CNS) was greater than 100 µM. For the same compound, the TGI (KM12 colon) was greater than 100 µM, the TGI (SF-539 CNS) was greater than 100 µM and the TGI (SK-MEL-5 melanoma) was greater than 100 µM. It also gave a TGI (NCI-H460 lung) greater than 100 µM, a TGI (MDA-MB-231 breast) greater than 100 µM and a TGI (BT-549 breast) greater than 100 µM. For the same compound, the TGI (HCT-15 colon) was greater than 100 µM, the TGI (SR leukemia) was greater than 100 µM and the TGI (K-562 leukemia) was greater than 100 µM. The TGI (SW-620 colon) was greater than 100 µM, the TGI (NCI/ADR-RES ovarian) was greater than 100 µM and the TGI (COLO 205 colon) was greater than 100 µM. For the same compound, the TGI (MDA-MB-435) was greater than 100 µM, the TGI (RPMI-8226 leukemia) was greater than 100 µM and the TGI (OVCAR-4 ovarian) was greater than 100 µM. It also gave a TGI (M14 melanoma) greater than 100 µM, a TGI (SNB-19 CNS) greater than 100 µM and a TGI (UO-31 renal) greater than 100 µM. For the same compound, the TGI (CAKI-1 renal) was greater than 100 µM, the TGI (RXF 393 renal) was greater than 100 µM and the TGI (ACHN renal) was greater than 100 µM. It also gave a TGI (A549 NSCLC) greater than 100 µM, a TGI (SK-OV-3 ovarian) greater than 100 µM and a TGI (MALME-3M melanoma) greater than 100 µM. For the same compound, the TGI (NCI-H23 lung) was greater than 100 µM and the TGI (HOP-62 NSCLC) was greater than 100 µM.

In the case of `CCOc1cc(NC(C)=O)ccc1C(=O)NN1C(=O)C(Oc2ccccc2)C1c1ccc(O)c(OC)c1` (centres undefined), the TGI (DU-145 prostate) is reported as greater than 100 µM, the TGI (SF-295 CNS) is reported as greater than 100 µM and the TGI (EKVX NSCLC) is reported as greater than 100 µM. It also gave a TGI (UACC-257 melanoma) greater than 100 µM, a TGI (TK-10 renal) greater than 100 µM and a TGI (HOP-92 NSCLC) greater than 100 µM. For the same compound, the TGI (HL-60(TB) leukemia) was 44.8 µM, the TGI (MDA-N) was greater than 100 µM and the TGI (NCI-H226 lung) was greater than 100 µM. The TGI (MOLT-4 leukemia) was 32.3 µM, the TGI (T-47D breast) was 77.9 µM and the TGI (SK-MEL-28 melanoma) was greater than 100 µM. For the same compound, the TGI (HCT-116 colon) was greater than 100 µM, the TGI (MCF7 breast) was greater than 100 µM and the TGI (786-0 renal) was greater than 100 µM. It also gave a TGI (OVCAR-5 ovarian) greater than 100 µM, a TGI (SK-MEL-2 melanoma) of 81.2 µM and a TGI (SN12C renal) of 99.4 µM. For the same compound, the TGI (LOX IMVI melanoma) was greater than 100 µM, the TGI (OVCAR-3 ovarian) was greater than 100 µM and the TGI (OVCAR-8 ovarian) was 96.8 µM. The TGI (HT29 colon) was greater than 100 µM, the TGI (U251 CNS) was greater than 100 µM and the TGI (KM12 colon) was greater than 100 µM. The TGI (SF-539 CNS) was greater than 100 µM, the TGI (SK-MEL-5 melanoma) was 49.5 µM and the TGI (MDA-MB-231 breast) was greater than 100 µM. The TGI (PC-3 prostate) was greater than 100 µM, the TGI (BT-549 breast) was greater than 100 µM and the TGI (HCT-15 colon) was greater than 100 µM. The TGI (SR leukemia) was greater than 100 µM, the TGI (K-562 leukemia) was greater than 100 µM and the TGI (SW-620 colon) was greater than 100 µM. The TGI (NCI/ADR-RES ovarian) was greater than 100 µM, the TGI (COLO 205 colon) was 83.9 µM and the TGI (MDA-MB-435) was greater than 100 µM. The TGI (RPMI-8226 leukemia) was 51.6 µM, the TGI (OVCAR-4 ovarian) was greater than 100 µM and the TGI (M14 melanoma) was greater than 100 µM. For the same compound, the TGI (SNB-75 CNS) was greater than 100 µM, the TGI (SNB-19 CNS) was greater than 100 µM and the TGI (UO-31 renal) was greater than 100 µM. The TGI (CAKI-1 renal) was greater than 100 µM, the TGI (CCRF-CEM leukemia) was 54.5 µM and the TGI (RXF 393 renal) was greater than 100 µM. For the same compound, the TGI (ACHN renal) was greater than 100 µM, the TGI (A549 NSCLC) was greater than 100 µM and the TGI (SK-OV-3 ovarian) was greater than 100 µM. The TGI (IGROV1 ovarian) was greater than 100 µM, the TGI (NCI-H23 lung) was greater than 100 µM and the TGI (HOP-62 NSCLC) was greater than 100 µM.
